Our source for the melting point values is a melting point compilation (Tetko et al.; mined from patent text by program, amines drawn as free bases though some values may be those of a salt).

SMILES strings stand for the structures.

As for `COc1cc(OC)c2c(=O)[nH]c(-c3ccc(OCCO)c(-c4ccc(S(C)(=O)=O)cc4)n3)nc2c1`, the melting point (in general, the temperature, or range, at which the solid turns liquid) is above 300 °C. The figure for `ClCc1coc(C2=Cc3ccccc3CC2)n1` is 73 to 74 °C; for `O=C(O)c1cccc2cc3ccccc3nc12` it is 202 to 204 °C. As to `CC1(C)Oc2ccc(C#N)cc2C(CC(=O)N2CCCCC2)C1O` (configuration not stated), the melting point was in the range of 160 to 161 °C. On to `CCCC(=O)Nc1cccc(-c2ccc3nnc(C)n3n2)c1`, for which the melting point lay within 195 to 198 °C. The figure for `Cc1cc(Cl)nc(NC(=O)NS(=O)(=O)c2ccccc2OC(F)F)n1` is 190 to 191 °C; for `CSc1nnc(COc2cc(C(C)(C)C)c(O)c(C(C)(C)C)c2)s1` it is 128 to 130 °C.

`CCCCCCCCCCCCCCOC(=O)c1cc(N)cc(C(=O)OCCCCCCCCCCCCCC)c1` displayed a melting point of 74 to 75 °C. With `COc1cc2ccccc2c(=O)c2cc(Cl)sc12` the figure was 190 to 194 °C; with `C(=C\c1nc(COc2ccc(CCCn3cccc3)cc2)co1)/c1ccccc1`, 108 to 109 °C; with `CCOC(=O)c1ccc(OCC(C)O)cc1` (configuration not stated), 52 to 53 °C. With `COc1ccc(CNc2nc(-c3ccccc3)c(-c3ccc(=O)n(C)n3)nc2C#N)cc1` the figure was 166 to 168 °C. The figure for `C=C(C)Cc1c(C)c(NC(C)=O)c(C)c(C)c1O` is 209 to 210 °C. Regarding `O=c1oc2cc(Br)ccc2c(O)c1[N+](=O)[O-]`, the melting point lay in the range of 155 to 157 °C. With `Cc1[nH]c(=S)n(Nc2cccc(Br)c2)c1-c1ccccc1` the figure was 190 °C.

`CCCCC(CC)C(=O)Nc1ccc2ccn(Cc3ccc(C(=O)OC)c4ccoc34)c2c1` (configuration not stated) came in with a melting point of 164 to 167 °C. The figure for `O=C(CC1(O)CCC1)N[C@H]1CC[C@H](CCN2CCN(c3nccc4c3OCC4)CC2)CC1` is 155 °C. With `Cc1ccc(C(=O)CCC(=O)c2ccccc2)s1` the figure was 122 °C; with `CCOC(OCC)c1cc(NC(c2ccccc2)(c2ccccc2)c2ccccc2)c(F)c(C2CCCO2)n1` (configuration not stated), 149 to 150 °C; with `COc1c(Cl)cc(NC(=O)OCCCl)c(OC)c1NC(=O)OCCCl`, 87 °C. With `CCCCCCCCCCCCCCCCOC(=O)c1ccc(-c2nnn[nH]2)nc1` the figure was 139 to 140 °C; with `O=C(O)Cn1cc(Cl)cnc1=O`, 186 to 188 °C; with `COC(=O)c1c(N)[nH]c2ccccc12`, 136 °C. With `CN(CCSCc1n[nH]c(CSCCN(C)C(N)=S)n1)C(N)=S`, the melting point fell in the range of 133 to 135 °C. With `Cc1cc(=O)[nH]c2c1C(=O)CCC2` the figure was 96 to 97 °C; with `Nc1c(F)c(F)cc2c1c(=O)c(C(=O)O)cn2C1CC1`, above 300 °C. The compound `COc1cc2c(cc1OC)C(COCCN1CCN(c3ccc(F)cc3)CC1)OCCC2` (configuration not stated) returned a melting point of 114 °C.

For the compound `CNC(=O)Nc1nc2c(s1)C(C)(C)CC(C)(C)C2`, the melting point is above 250 °C.

`CCCCCCCCCOc1ccc(F)c(C(N)=O)c1Cl` displayed a melting point of 64 to 66 °C. As to `CCc1cc2c(NCc3ccccc3)ncnc2s1`, the melting point fell in the range of 128 to 131 °C. With `O=C(C=Cc1ccsc1)Nc1nnn[nH]1` the figure was 273 to 274 °C.

For the compound `O=C1COC(=O)c2ccccc2N1`, the melting point is 200 to 201 °C. For the compound `O=C(O)Cc1cc(Cl)c2c(c1)CCC(C(F)(F)F)N2` (configuration not stated), the melting point lay in the range of 110 to 112 °C. Take `N#CC1(CCNC(=O)C(Cl)Cl)CC1`: the melting point was 97 to 100 °C. Turning to `CC(=O)c1ccc(-c2cnco2)cc1`, the melting point lay within 128 to 130 °C. With `CC(=O)Nc1c([N+](=O)[O-])cc(Br)c2c1CCN(C)C2` the figure was 190 to 192 °C. The figure for `c1ccc2c(c1)c1ccccc1n2-c1ccc(-n2ccnc2-c2nccn2-c2ccc(-n3c4ccccc4c4ccccc43)cc2)cc1` is 270 to 274 °C.
